Patent publication US10189839B2, “Tricyclic imidazole compounds as inhibitors of tryptophan hydroxylase” (ACTELION PHARMACEUTICALS LTD, priority 2013, dated 2019)

Target: T1, full length human TPH1 (Homo sapiens, UniProt P17752)
T1 construct: To generate the enzyme, full length human TPH1 is cloned into the plasmid pET20b(+); made in house; host or cells: E. coli
T1 sequence (P17752 1-444): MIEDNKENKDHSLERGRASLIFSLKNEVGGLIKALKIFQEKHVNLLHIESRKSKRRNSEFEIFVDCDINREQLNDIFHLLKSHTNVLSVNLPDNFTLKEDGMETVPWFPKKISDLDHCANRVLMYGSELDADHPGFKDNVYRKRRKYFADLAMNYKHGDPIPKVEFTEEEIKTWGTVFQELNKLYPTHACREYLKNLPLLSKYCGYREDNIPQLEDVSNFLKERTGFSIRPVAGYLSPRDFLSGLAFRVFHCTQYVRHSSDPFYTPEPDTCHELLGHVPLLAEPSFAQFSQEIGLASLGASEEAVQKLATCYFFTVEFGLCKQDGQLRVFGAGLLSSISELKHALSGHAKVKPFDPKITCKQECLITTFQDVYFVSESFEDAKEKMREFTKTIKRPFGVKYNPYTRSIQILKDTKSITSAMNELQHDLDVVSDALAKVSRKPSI
Test: Biochemical in vitro assay using fluorescence readout (TPH1 enzyme activity)
Conditions: Table 1, mean where determined several times
Text: Inhibitory activities on tryptophan hydroxylase 1 have been measured for each example compound using the following procedure:
Biochemical In Vitro Assay Using Fluorescence Readout
To generate the enzyme, full length human TPH1 is cloned into the plasmid pET20b(+) (Novagen) and expressed in E. coli. The bacterial cells are ruptured by sonication on ice and the lysate is cleared by centrifugation. The resulting protein in the pellet is re-extracted and TPH1 is purified from the obtained lysate by affinity chromatography using a pterin cosubstrate analog immobilized to the resin of the column. The protein is further purified by size exclusion chromatography to remove protein aggregates. The activity of TPH1 is determined by using a fluorescence assay. The enzyme activity assay is carried out at 15° C. with atmosphere oxygen for the duration of 60 minutes in a volume of 64 μl. The reaction is carried out in a 0.1M Tris-HCl buffer, adjusted to pH 7.6, containing 1 mM DTT, 0.2 mg/ml catalase, 100 μM (±)-6-methyl-5,6,7,8-tetrahydropterine dihydrochloride, 40 μM L-tryptophan, and 40-80 nM of TPH1. The reaction is started by bringing together L-tryptophan with all the other reaction substituents and stopped by quenching with perchloric acid (HClO4). The amount of 5-hydroxy-L-tryptophan produced during the enzymatic reaction is determined by fluorescence readout. Fluorescence, as determined at 540 nm when excited at 300 nm wavelength, increases proportionally to the 5-hydroxy-L-tryptophan formed. Compounds are prepared as 10 mM stock solution in DMSO, then diluted in 384-well plates using DMSO followed by a transfer of the dilutions into the assay plate. Fluorescence is measured for each well and the fluorescence at 540 nm wavelength is compared to the fluorescence of the vehicle in place of compound. Inhibitory activities of example compounds with respect to the TPH1 protein are determined by calculating the IC50 value (the concentration of compound needed to inhibit 50% of the enzyme activity). The calculated IC50 values may fluctuate depending on the daily biochemical assay performance. Fluctuations of this kind are known to those skilled in the art. In the case where IC50 values have been determined several times for the same compound, the mean is given.

Row | IC50 [nM] | SMILES
1 | 23 | CS(=O)(=O)Nc1ccc(OCC(=O)N2CCc3nc4n(c3[C@@H]2c2ccc(Cl)cc2F)CCCC4)c(Cl)n1 [Example 1.1.17, (S)-N-(6-chloro-5-(2-(1-(4-chloro-2-fluorophenyl)-3,4,6,7,8,9-hexahydroimidazo[1,2-a:5,4-c′]dipyridin-2(1H)-yl)-2-oxoethoxy)pyridin-2-yl)methanesulfonamide]
2 | 68 | CC(C)(O)c1ccc(C2c3c(nc4n3CCCC4)CCN2C(=O)COc2ccc(C(=O)NC3CC3)nc2Cl)c(F)c1 (stereo not drawn) [Example 1.24.1, 6-chloro-N-cyclopropyl-5-(2-(1-(2-fluoro-4-(2-hydroxypropan-2-yl)phenyl)-3,4,6,7,8,9-hexahydroimidazo[1,2-a:5,4-c′]dipyridin-2(1H)-yl)-2-oxoethoxy)picolinamide]
3 | 25 | COCc1ccc(C2c3c(nc4n3CCCC4)CCN2C(=O)COc2ccc(NS(C)(=O)=O)nc2Cl)c(F)c1 (stereo not drawn) [Example 1.26.2, N-(6-chloro-5-(2-(1-(2-fluoro-4-(methoxymethyl)phenyl)-3,4,6,7,8,9-hexahydroimidazo[1,2-a:5,4-c′]dipyridin-2(1H)-yl)-2-oxoethoxy)pyridin-2-yl)methanesulfonamide]
4 | 82 | Cc1nc(C)c(C2c3c(nc4n3CCCC4)CCN2C(=O)COc2ccc(C(=O)N(C)C3CC3)nc2Cl)s1 (stereo not drawn) [Example 1.10.2, 6-chloro-N-cyclopropyl-5-(2-(1-(2,4-dimethylthiazol-5-yl)-3,4,6,7,8,9-hexahydroimidazo[1,2-a:5,4-c′]dipyridin-2(1H)-yl)-2-oxoethoxy)-N-methylpicolinamide]
5 | 15 | Cc1ccc(C2c3c(nc4n3CCS4)CCN2C(=O)COc2ccc(C(=O)NC3CC3)nc2Cl)c(F)c1F (stereo not drawn) [Example 4.4.2, 6-chloro-N-cyclopropyl-5-(2-(5-(2,3-difluoro-4-methylphenyl)-2,3,7,8-tetrahydrothiazolo[2′,3′:2,3]imidazo[4,5-c]pyridin-6(5H)-yl)-2-oxoethoxy)picolinamide]
6 | 51 | CN(C)C(=O)c1ccc(OC2(C(=O)N3CCc4nc5n(c4C3c3ccc(Cl)cc3F)CCCC5)CC2)c(Cl)n1 (stereo not drawn) [Example 1.1.26, 6-chloro-5-(1-(1-(4-chloro-2-fluorophenyl)-1,2,3,4,6,7,8,9-octahydroimidazo[1,2-a:5,4-c′]dipyridine-2-carbonyl)cyclopropoxy)-N,N-dimethylpicolinamide]
7 | 17 | O=C(COc1ccc(N2CCCS2(=O)=O)nc1Cl)N1CCc2nc3n(c2C1c1ccc(Cl)cc1F)CCCC3 (stereo not drawn) [Example 1.1.10, 1-(1-(4-chloro-2-fluorophenyl)-3,4,6,7,8,9-hexahydro-imidazo[1,2-a:5,4-c′]dipyridin-2(1H)-yl)-2-((2-chloro-6-(1,1-dioxidoisothiazolidin-2-yl)pyridin-3-yl)oxy)-ethanone]
8 | 177 | Cc1nc(C)c(C2c3c(nc4n3CCCC4)CCN2C(=O)COc2ccc(C(F)(F)F)nc2Cl)s1 (stereo not drawn) [Example 1.10.7, 2-((2-chloro-6-(trifluoromethyl)pyridin-3-yl)oxy)-1-(1-(2,4-dimethylthiazol-5-yl)-3,4,6,7,8,9-hexahydroimi-dazo[1,2-a:5,4-c′]dipyridin-2(1H)-yl)ethanone]
9 | 29 | CN(C(=O)c1ccc(OCC(=O)N2CCc3nc4n(c3C2c2ccc(Cl)cc2F)CCCC4)c(Cl)n1)C1CC1 (stereo not drawn) [Example 1.1.4, 6-chloro-5-(2-(1-(4-chloro-2-fluorophenyl)-3,4,6,7,8,9-hexahydroimidazo[1,2-a:5,4-c′]dipyridin-2(1H)-yl)-2-oxoethoxy)-N-cyclopropyl-N-methylpicolinamide]
10 | 6 | CCc1nc(NS(C)(=O)=O)ccc1OCC(=O)N1CCc2nc3n(c2[C@@H]1c1ccc(Cl)cc1F)CCS3 [Example 4.1.15, (S)-N-(5-(2-(5-(4-chloro-2-fluorophenyl)-2,3,7,8-tetrahydrothiazolo[2′,3′:2,3]imidazo[4,5-c]pyridin-6(5H)-yl)-2-oxoethoxy)-6-ethylpyridin-2-yl)methanesulfonamide]
11 | 16 | CCc1nc(NS(C)(=O)=O)ccc1OCC(=O)N1CCc2nc3n(c2C1c1ccc(Cl)cc1F)CCS3 (stereo not drawn) [Example 4.1.3, N-(5-(2-(5-(4-chloro-2-fluorophenyl)-2,3,7,8-tetrahydrothiazolo[2′,3′:2,3]imidazo[4,5-c]pyridin-6(5H)-yl)-2-oxoethoxy)-6-ethylpyridin-2-yl)methanesulfonamide]
12 | 85 | Cc1nc(C)c(C2c3c(nc4n3CCCC4)CCN2C(=O)COc2ccc(C(=O)N(C)C)nc2Cl)s1 (stereo not drawn) [Example 1.10.5, 6-chloro-5-(2-(1-(2,4-dimethylthiazol-5-yl)-3,4,6,7,8,9-hexahydroimidazo[1,2-a:5,4-c′]dipyridin-2(1H)-yl)-2-oxoethoxy)-N,N-dimethylpicolinamide]
13 | 50 | O=C(COc1cccnc1C(F)(F)F)N1CCc2nc3n(c2C1c1ccc(C2CC2)cc1F)CCNC3 (stereo not drawn) [Example 5.2.10, 1-(1-(4-cyclopropyl-2-fluorophenyl)-3,4,6,7,8,9-hexahydropyrido[4′,3′:4,5]imidazo[1,2-a]pyrazin-2(1H)-yl)-2-((2-(trifluoromethyl)pyridin-3-yl)oxy)ethanone]
14 | 207 | Cc1nc(C)c(C2c3c(nc4n3CCCC4)CCN2C(=O)COc2ccc(C#N)cc2Cl)s1 (stereo not drawn) [Example 1.10.10, 3-chloro-4-(2-(1-(2,4-dimethylthiazol-5-yl)-3,4,6,7,8,9-hexahydroimidazo[1,2-a:5,4-c′]dipyridin-2(1H)-yl)-2-oxoethoxy)benzonitrile]
15 | 28 | CN(C)C(=O)c1ccc(OCC(=O)N2CCc3nc4n(c3C2c2sccc2F)CCS4)c(Cl)n1 (stereo not drawn) [Example 4.6.1, 6-chloro-5-(2-(5-(3-fluorothiophen-2-yl)-2,3,7,8-tetrahydrothiazolo[2′,3′:2,3]imidazo[4,5-c]pyridin-6(5H)-yl)-2-oxoethoxy)-N,N-dimethylpicolinamide]
16 | 143 | CCc1cc(Cl)ccc1OCC(=O)N1CCc2nc3n(c2C1c1ncc(C2CC2)cc1F)CCNC3 (stereo not drawn) [Example 5.4.5, 2-(4-chloro-2-ethylphenoxy)-1-(1-(5-cyclopropyl-3-fluoropyridin-2-yl)-3,4,6,7,8,9-hexahydropyrido[4′,3′:4,5]imidazo[1,2-a]pyrazin-2(1H)-yl)ethanone]
17 | 28 | CCc1nc(C)ccc1OCC(=O)N1CCc2nc3n(c2C1c1ccc(Cl)cc1F)CCS3 (stereo not drawn) [Example 4.1.8, 1-(5-(4-chloro-2-fluorophenyl)-2,3,7,8-tetrahydrothiazolo[2′,3′:2,3]imidazo[4,5-c]pyridin-6(5H)-yl)-2-((2-ethyl-6-methylpyridin-3-yl)oxy)ethanone]
18 | 8 | CCc1nc(N2CCCS2(=O)=O)ccc1OCC(=O)N1CCc2nc3n(c2C1c1sc(C)nc1C)CCC3 (stereo not drawn) [Example 2.4.1, 1-(1-(2,4-dimethylthiazol-5-yl)-3,4,7,8-tetrahydro-1H-pyrrolo[2′,1′:2,3]imidazo[4,5-c]pyridin-2(6H)-yl)-2-((6-(1,1-dioxidoisothiazolidin-2-yl)-2-ethylpyridin-3-yl)oxy)ethanone]
19 | 225 | CCc1nc(NS(C)(=O)=O)ccc1OCC(=O)N1CCc2nc3n(c2C1c1cnc(-c2ccccc2)s1)CCCC3 (stereo not drawn) [Example 1.16.1, N-(6-ethyl-5-(2-oxo-2-(1-(2-phenylthiazol-5-yl)-3,4,6,7,8,9-hexahydroimidazo[1,2-a:5,4-c′]dipyridin-2(1H)-yl)ethoxy)pyridin-2-yl)methanesulfonamide]
20 | 4 | O=C(COc1ccc(N2CCOCC2)nc1Cl)N1CCc2nc3n(c2C1c1ccc(Cl)cc1F)CCOC3 (stereo not drawn) [Example 6.1.1, 1-(6-(4-chloro-2-fluorophenyl)-3,4,8,9-tetrahydro-1 H-pyrido[4′,3′:4,5]imidazo[2,1-c][1,4]oxazin-7(6H)-yl)-2-((2-chloro-6-morpholinopyridin-3-yl)oxy)ethanone]
21 | 22 | CS(=O)(=O)Nc1ccc(OCC(=O)N2CCc3nc4n(c3C2c2ccc(C3CC3)cc2F)CCCC4)c(Cl)n1 (stereo not drawn) [Example 1.8.3, N-(6-chloro-5-(2-(1-(4-cyclopropyl-2-fluorophenyl)-3,4,6,7,8,9-hexahydroimidazo[1,2-a:5,4-c′]dipyridin-2(1H)-yl)-2-oxoethoxy)pyridin-2-yl)methanesulfonamide]
